The assay addresses T1, human HSL (Homo sapiens, UniProt Q05469).
T1 construct: overlapping PCR to generate a full length human HSL ORF with a 3′-His6 tag; His6 (C); made in house; host or cells: High 5 insect cells (baculovirus, pFast-BAC)
T1 sequence (Q05469 1-1076): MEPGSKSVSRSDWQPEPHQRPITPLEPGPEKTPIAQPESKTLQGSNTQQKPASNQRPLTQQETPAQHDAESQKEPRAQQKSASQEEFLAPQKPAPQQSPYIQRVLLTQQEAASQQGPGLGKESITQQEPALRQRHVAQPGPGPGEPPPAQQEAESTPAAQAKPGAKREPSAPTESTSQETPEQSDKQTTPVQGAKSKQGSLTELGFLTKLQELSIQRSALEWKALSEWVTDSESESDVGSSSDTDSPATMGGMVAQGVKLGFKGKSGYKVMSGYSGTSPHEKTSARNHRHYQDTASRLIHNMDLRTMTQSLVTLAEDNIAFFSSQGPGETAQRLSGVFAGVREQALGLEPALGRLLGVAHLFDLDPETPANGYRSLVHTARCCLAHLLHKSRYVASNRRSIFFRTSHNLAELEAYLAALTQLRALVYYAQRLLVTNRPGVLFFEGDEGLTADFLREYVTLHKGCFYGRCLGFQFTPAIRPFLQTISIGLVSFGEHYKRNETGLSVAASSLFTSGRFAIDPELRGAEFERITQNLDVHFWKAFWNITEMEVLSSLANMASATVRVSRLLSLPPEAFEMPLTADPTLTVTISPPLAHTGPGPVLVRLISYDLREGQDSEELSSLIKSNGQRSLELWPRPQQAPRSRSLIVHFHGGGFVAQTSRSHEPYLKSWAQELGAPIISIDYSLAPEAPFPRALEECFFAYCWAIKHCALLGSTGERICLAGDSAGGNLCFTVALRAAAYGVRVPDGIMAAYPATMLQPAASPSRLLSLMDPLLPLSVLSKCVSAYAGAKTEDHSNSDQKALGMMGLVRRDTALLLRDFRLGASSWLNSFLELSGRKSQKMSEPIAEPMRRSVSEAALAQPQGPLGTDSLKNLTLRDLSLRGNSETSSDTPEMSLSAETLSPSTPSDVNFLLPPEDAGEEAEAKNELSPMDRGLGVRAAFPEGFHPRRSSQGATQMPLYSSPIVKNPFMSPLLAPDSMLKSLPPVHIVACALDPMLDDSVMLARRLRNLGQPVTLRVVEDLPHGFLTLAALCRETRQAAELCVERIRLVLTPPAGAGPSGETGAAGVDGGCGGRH
The experiment in a line: Human Hormone-Sensitive Lipase (HSL) enzyme inhibition assay (colorimetric, DMPT substrate). It counts as biochemical. Particulars: human full length HSL-His6, 2,3-dimercapto-1-propanol tributyrate substrate, 37° C. 20 minutes, absorbance at 405 nm; read-out: HSL hum IC50. As to the method:
1) Cloning: cDNA was prepared from commercial human brain polyA+ RNA and used as a template in overlapping PCR to generate a full length human HSL ORF with a 3′-His6 tag. This full length insert was cloned into the pFast-BAC vector and the DNA-sequence of several single clones was verified. DNA from a correct full length clone with the 3′His6 tag was used to transform the E. coli strain DH10BAC. Resulting bacmid DNA was used to generate a titered baculovirus stock for protein generation.
Cells were thawed. […] was done at 3×30 sec., Lubrol PX was added to 0.2% final concentration followed by stirring for 15 min. at 4° C. and centrifugation at 25 k×g, 60 min., 4° C. […] Supernatant was removed, the resin washed in the centrifuge vessel using 5 volumes of Base Buffer containing 0.2% Lubrol PX. Centrifugation was done again, then the supernatant discarded. The resin was poured onto a 0.8 μm membrane in a disposable filter unit (Nalge 450-0080), and washed with 5 volumes of Base Buffer containing 0.2% Lubrol PX. It was then washed with 30 volumes of Base Buffer containing 60 mM imidazole pH 7.5 at 4° C. The protein was eluated with 5 volumes of 25 mM Tris-Cl, 300 mM NaCl, 200 mM imidazole, 10 mM 2-mercaptoethanol, pH 7.5 at 4° C. by tumbling resin with buffer end-over-end, 30 min., 4° C. The resin was captured on a 0.2 μm membrane disposable filter unit (Millipore SCGP U02 RE) and the eluate collected in the reservoir. The eluate was concentrated using a 30 k MWCO centrifugal filter device (Sartorius Vivascience Vivacell 100, VC1022), to 20 ml. It was then dialyzed overnight at 4° C., two times against 2 L of 10% glycerol, 25 mM Tris-Cl, 300 mM NaCl, 0.2 mM EDTA, 0.2 mM DTT, pH 7.5 at 4° C. The protein was filtered using a 0.22 μm disposable filter unit (Millipore SCGP00525). The protein concentration was calculated from absorbance at 280 nm, using 280=0.67 cm-1 mg-1. […] The protein was stored at −80° C.
Human Hormone-Sensitive Lipase (HSL) Enzyme Inhibition Assay:
HSL enzyme activity was measured by a colorimetric assay using 2,3-dimercapto-1-propanol tributyrate (Aldrich, St. Louis, Mo.) as a substrate. Typically, 1.5 mM 2,3-dimercapto-1-propanol tributyrate (DMPT) in 100 mM MOPS, pH 7.2, 0.2 mg/ml fatty acid-free BSA was prepared by sonication at 4° C. to homogenous suspension. Test compounds (2 mM stock in DMSO) were diluted 3 fold in series in DMSO. Compound solutions were diluted 24 fold in 1.5 mM DMPT containing solution and 18 ul per well was added to 384-well microplates (Corning Costar). Twelve microliters per well of human HSL (15 ug/ml) was added and the reaction mixture was incubated at 37° C. for 20 minutes. Six microliters of 12 mM dithio-bis-(2-nitrobenzoic acid) (DTNB) in DMSO plus 1.2% SDS and 0.6% Triton X-100 were added and the mixture was incubated at room temperature for 15 minutes. Product production was monitored by reading absorbance at 405 nm on an Envision Reader (PerkinElmer Life and Analytical Sciences, Shelton, Conn.).

Each structure is given as a SMILES string.

A word on the IC50: it is the midpoint of a concentration-inhibition curve.

Turning to `O=C1N(c2ccc(C3CC3)cc2)CCC12CCN(CCCc1ccccc1)CC2` [Example 1, 2-(4-Cyclopropyl-phenyl)-8-(3-phenyl-propyl)-2,8-diaza-spiro[4.5]decan-1-one], the IC50 was 240 nM.
As to `O=C1N(c2ccc(C3CC3)cc2)CCC12CCN(CCc1ccccc1)CC2` [Example 2, 2-(4-Cyclopropyl-phenyl)-8-phenethyl-2,8-diaza-spiro[4.5]decan-1-one], the IC50 came out at 70 nM.
The figure for `O=C1N(c2ccc(C3CC3)cc2)CCC12CCN(Cc1ccc(C(F)(F)F)cc1)CC2` [Example 3, 2-(4-Cyclopropyl-phenyl)-8-(4-trifluoromethyl-benzyl)-2,8-diaza-spiro[4.5]decan-1-one] is 360 nM; for `CC(c1ccccc1)N1CCC2(CCN(c3ccc(C4CC4)cc3)C2=O)CC1` (centres unmarked) [Example 4, 2-(4-Cyclopropyl-phenyl)-8-(1-phenyl-ethyl)-2,8-diaza-spiro[4.5]decan-1-one] it is 30 nM.
The figure for `CC(c1cccc(C(F)(F)F)c1)N1CCC2(CCN(c3ccc(C4CC4)cc3)C2=O)CC1` (centres unmarked) [Example 5, 2-(4-Cyclopropyl-phenyl)-8-[1-(3-trifluoromethyl-phenyl)-ethyl]-2,8-diaza-spiro[4.5]decan-1-one] is 170 nM; for `CC(c1ccccc1)N1CCC2(CCN(c3ccc(C4CC4)cc3Cl)C2=O)CC1` (centres unmarked) [Example 6, 2-(2-Chloro-4-cyclopropyl-phenyl)-8-(1-phenyl-ethyl)-2,8-diaza-spiro[4.5]decan-1-one] it is 980 nM.
The result for `CCC(c1ccccc1)N1CCC2(CCN(c3ccc(C4CC4)cc3)C2=O)CC1` (centres unmarked) [Example 7, 2-(4-Cyclopropyl-phenyl)-8-(1-phenyl-propyl)-2,8-diaza-spiro[4.5]decan-1-one] reads 30 nM.
As to `O=C1N(c2ccc(OC(F)(F)F)cc2)CCC12CCN(Cc1ccccc1)CC2` [Example 8, 8-Benzyl-2-(4-trifluoromethoxy-phenyl)-2,8-diaza-spiro[4.5]decan-1-one], the IC50 is 40 nM.
Consider `CCNC(=O)CN1CCC2(CC1)CCN(c1ccc(C3CC3)cc1)C2=O` [Example 9, 2-[2-(4-Cyclopropyl-phenyl)-1-oxo-2,8-diaza-spiro[4.5]dec-8-yl]-N-ethyl-acetamide], for which the IC50 was found to be 610 nM.
The figure for `CCN(CC)C(=O)CN1CCC2(CC1)CCN(c1ccc(C3CC3)cc1)C2=O` [Example 10, 2-[2-(4-Cyclopropyl-phenyl)-1-oxo-2,8-diaza-spiro[4.5]dec-8-yl]-N,N-diethyl-acetamide] is 380 nM.
Consider `CCCCNC(=O)CN1CCC2(CC1)CCN(c1ccc(C3CC3)cc1)C2=O` [Example 11, N-Butyl-2-[2-(4-cyclopropyl-phenyl)-1-oxo-2,8-diaza-spiro[4.5]dec-8-yl]-acetamide], for which the IC50 was 90 nM.
`O=C(CN1CCC2(CC1)CCN(c1ccc(C3CC3)cc1)C2=O)NCc1ccc(C(F)(F)F)cc1` [Example 12, 2-[2-(4-Cyclopropyl-phenyl)-1-oxo-2,8-diaza-spiro[4.5]dec-8-yl]-N-(4-trifluoromethyl-benzyl)-acetamide]: the IC50 was determined as 30 nM.
The result for `O=C(CN1CCC2(CC1)CCN(c1ccc(C3CC3)cc1)C2=O)Nc1ccc(F)cc1` [Example 13, 2-[2-(4-Cyclopropyl-phenyl)-1-oxo-2,8-diaza-spiro[4.5]dec-8-yl]-N-(4-fluoro-phenyl)-acetamide] reads 80 nM.
`O=C(CN1CCC2(CC1)CCN(c1ccc(C3CC3)cc1)C2=O)N1CCCC1` [Example 14, 2-(4-Cyclopropyl-phenyl)-8-(2-oxo-2-pyrrolidin-1-yl-ethyl)-2,8-diaza-spiro[4.5]decan-1-one]: the IC50 is 220 nM.
The figure for `CN(Cc1ccccc1)C(=O)CN1CCC2(CC1)CCN(c1ccc(C3CC3)cc1)C2=O` [Example 15, N-Benzyl-2-[2-(4-cyclopropyl-phenyl)-1-oxo-2,8-diaza-spiro[4.5]dec-8-yl]-N-methyl-acetamide] is 80 nM; for `CN(C(=O)CN1CCC2(CC1)CCN(c1ccc(C3CC3)cc1)C2=O)C1CCCCC1` [Example 16, N-Cyclohexyl-2-[2-(4-cyclopropyl-phenyl)-1-oxo-2,8-diaza-spiro[4.5]dec-8-yl]-N-methyl-acetamide] it is 60 nM; for `COCCCNC(=O)CN1CCC2(CC1)CCN(c1ccc(C3CC3)cc1)C2=O` [Example 17, 2-[2-(4-Cyclopropyl-phenyl)-1-oxo-2,8-diaza-spiro[4.5]dec-8-yl]-N-(3-methoxy-propyl)-acetamide] it is 710 nM.
With `CCCCNC(=O)CCN1CCC2(CC1)CCN(c1ccc(C3CC3)cc1)C2=O` [Example 18, N-Butyl-3-[2-(4-cyclopropyl-phenyl)-1-oxo-2,8-diaza-spiro[4.5]dec-8-yl]-propionamide], the IC50 is 460 nM.
The result for `O=C(CCN1CCC2(CC1)CCN(c1ccc(C3CC3)cc1)C2=O)NCc1ccc(C(F)(F)F)cc1` [Example 19, 3-[2-(4-Cyclopropyl-phenyl)-1-oxo-2,8-diaza-spiro[4.5]dec-8-yl]-N-(4-trifluoromethyl-benzyl)-propionamide] reads 30 nM; that for `O=C(CCN1CCC2(CC1)CCN(c1ccc(C3CC3)cc1)C2=O)Nc1ccc(F)cc1` [Example 20, 3-[2-(4-Cyclopropyl-phenyl)-1-oxo-2,8-diaza-spiro[4.5]dec-8-yl]-N-(4-fluoro-phenyl)-propionamide], 60 nM; that for `CN(Cc1ccccc1)C(=O)CCN1CCC2(CC1)CCN(c1ccc(C3CC3)cc1)C2=O` [Example 21, N-Benzyl-3-[2-(4-cyclopropyl-phenyl)-1-oxo-2,8-diaza-spiro[4.5]dec-8-yl]-N-methyl-propionamide], 90 nM.
Take `CN(C(=O)CCN1CCC2(CC1)CCN(c1ccc(C3CC3)cc1)C2=O)C1CCCCC1` [Example 22, N-Cyclohexyl-3-[2-(4-cyclopropyl-phenyl)-1-oxo-2,8-diaza-spiro[4.5]dec-8-yl]-N-methyl-propionamide]: the IC50 is 320 nM.
The figure for `O=C1N(c2ccc(C3CC3)cc2)CCC12CCN(CC(O)c1ccccc1)CC2` (centres unmarked) [Example 23, 2-(4-Cyclopropyl-phenyl)-8-(2-hydroxy-2-phenyl-ethyl)-2,8-diaza-spiro[4.5]decan-1-one] is 70 nM.

Values taken from patent publication US8389539B2, “Azacyclic derivatives” (Hoffman-La Roche Inc., priority 2009, dated 2013).
